Laboratory results reported in patent publication US7091182B2, “Method for assisting in differential diagnosis and treatment of autistic syndromes” (Repligen Corporation, priority 1997, dated 2006).

Assays:
[1] = tested on: children with autistic behavior; assay: Pancreatic stimulation with secretin during upper gastrointestinal endoscopy, collection of pancreatico-biliary fluid; format: in vivo, human
Procedure: (§1) After fasting from midnight, upper gastrointestinal endoscopies were carried out the next morning under general anesthesia. All gastric juice was aspirated before passing the endoscope into the duodenum. The pancreatico-biliary juice was collected after positioning the endoscope distal to the ampulla of Vater. An ERCP catheter was placed into the channel of endoscope and the fluid was collected by moving the tip into the outcoming fluid and suctioning it into a syringe. The pancreas was then stimulated with secretin 2 IU/kg BW (Ferring Laboratories, Inc. Suffern, NY, USA) given intravenously within a minute. Three additional specimens were collected after the secretin injection within a 10-minute period. Blood samples were collected prior to and 10 minutes after secretin stimulation. In a subgroup of children, the effect of duodenal acidification was determined by measurement of blood secretin levels before and 4–5 minutes after washing the second part of the duodenum with 0.05M hydrochloric acid for 5 minutes. At the end of the procedure, biopsies were obtained of the small intestine, esophagus and stomach.
The volume of secreted fluid was calculated as ml/min and the aspirated juice analyzed for pH, protein (mg/ml; Bio-Rad protein assay), and for enzymes (amylase, trypsin, lipase, chymotrypsin, and carboxypeptidase A and B). These enzyme assays were modified by us and run regularly in our certified Clinical Laboratory. An aliquot of collected fluid was sent for bacterial and fungal culture. Intestinal biopsy specimens were homogenized in ice-cold distilled water and the activities of lactase, maltase, sucrase, palatinase and glucoamylase were measured using the Dahlquist intestinal disaccharidases assay [Dahlquist, Anal. Biochem. 22:99–107 (1968); Azad M, Pediatr Res, 1990;28: 166–170 (1990)]. The normal values were established based on measurements of histological normal intestinal biopsy tissues (n=104) at the University of Maryland. In our practice, digestive enzyme activities below the established 3d percentile values are considered abnormal.

[2] = tested on: children with autistic behavior; assay: Blood levels of gastrointestinal peptide hormones and neurotransmitters prior to and 10 minutes after secretin stimulation; format: in vivo, human
Procedure: as §1
Blood samples were analyzed for the levels of gastrointestinal peptide hormones (Secretin, CCK, VIP, Peptide Y) and neurotransmitters (Serotonin, Substance P). All the assays were performed in the Interscience Institute (Inglewood, Calif.) specialized in gastrointestinal hormone measurements.

[3] = tested on: children without behavioral abnormalities; adults; assay: Secretin stimulatory response (pancreatic juice output) in non-autistic children and adults; format: in vivo, human
Procedure: The time required to collect basal duodenal fluid samples (1–2 ml) prior to secretin administration was 2–5 minutes, which was similar to that of non-autistic controls. […] Published adult responses using duodenal intubation and extended periods of specimen collection vary between 1.5 and 4.9 ml/min^56,57. Six out of 7 autistic patients who had chronic loose stools had pancreatico-biliary secretion rates above 5 ml/min (FIG. 4). […] The highest rate of secretion was 10 ml/min in one child.

[4] = tested on: patients with intrahepatic cholestasis; settings: double-blind placebo-controlled multicentric trial; cited from earlier work
[5] = Group I (chronic loose stools/diarrhea)

Substance: secretin
- pancreatic secretory response ([1]; Case 1, after 2 IU/kg BW of secretin): 10 mL/min
- secretory response after secretin administration ([1]; Case 2, 2 IU/kg body weight of secretin): 7.5 mL/min
- pancreato-biliary response to secretin, output ([1]; Case 3): 8 mL/min
- Pancreatic secretion [1, 5]: Increased (>5 ml/min)
- Pancreatic secretion ([1]; Group II (no diarrhea)): Normal (<4 ml/min)
- pancreato-biliary secretory response compared to non-autistic patients ([1]; all children, after secretin injection): extensive pancreato-biliary secretory response
- highest rate of secretion ([1]; in one child): 10 mL/min
- pancreatico-biliary secretion rates ([1]; six out of 7 autistic patients who had chronic loose stools): above 5 ml/min
- Serotonin level after secretin injection [2, 5]: >50% elevation
- Serotonin level after secretin injection ([2]; Group II (no diarrhea)): <50% elevation
- blood level of CCK ([2]; after secretin injection): no change at all
- blood level of VIP ([2]; after secretin injection): no change at all
- blood level of substance P ([2]; after secretin injection): no change at all
- blood serotonin level ([2]; children with chronic diarrhea, ten minutes after secretin injection, fasting): significant elevation
- blood level of Peptide Y ([2]; four children, before or after secretin administration): no abnormality
- average stimulatory response for secretin ([3]; children 3–7 years of age, own data, same endoscopic collection technique): 1 to 2 mL/min
- typical pancreatic juice output ([3]; children without behavioral abnormalities, ages 1 to 6): 1 to 2 mL/min
- reduction of serum bilirubin levels, secretin versus placebo [4]: no statistically significant differences
